Data on 85 molecules can be found in PubChem BioAssay AID2305 (GlaxoSmithKline (GSK), 2010).

SMILES strings stand for the structures. Where a SMILES comes first, the peptide text is derived from it.

This assay concerns P. falciparum 3D7 growth, pLDH absorbance. Briefly: P. falciparum 3D7 growth inhibition, dose response, strain 3D7 (AID 2305).

Molecule `O=C(Cc1cccc2ccccc12)N1CCc2cc3nccc(N4CCN5CCC[C@H]5C4)c3cc21` gave an IC50 of 780 nM.

The molecule `Cc1ccccc1C1CCN(C2CCC(NC(=O)/C=C/c3cc(F)cc(F)c3)CC2)CC1` (stereo not given) displayed an IC50 of 830 nM.

`Cn1cnc2nc(NCCc3ccccc3)nc(NCc3cccc4ccccc34)c21`: the IC50 stood at 330 nM.

Molecule `CS(=O)(=O)CCNCc1nc(-c2ccc3c(=O)[nH]cnc3c2)cs1` registered an IC50 of 1010 nM.

In turn, `COc1ccccc1C1CN(CCNC(=O)c2ncc(C)[nH]2)Cc2ccccc2O1` (stereo not given) had an IC50 of 800 nM.

As to `Cc1cc(Nc2nc(Nc3cccc(Cl)c3)nc3ccccc23)n[nH]1`, the IC50 amounted to 290 nM.

`CC(C)(C)OC(=O)C1CCCN(Cc2ccc(-c3cccc(-c4nc5ccccc5[nH]4)c3)cc2)C1` (stereo not given) registered an IC50 of 360 nM.

As for `O=C(/C=C/c1ccc(Cl)c(Cl)c1)NCCCCCCN1CCN(C(=O)Nc2ccc(OC(F)F)cc2)CC1`, the IC50 turned out to be 680 nM.

Molecule `FC(F)(F)c1ccc2nc(-c3ccc(-c4ccc(CNCc5ccccc5)cc4)cc3)[nH]c2c1` returned an IC50 of 140 nM.

`COc1ccc2nccc([C@@H](O)CN3CCC(NCc4cc5ccccc5[nH]4)CC3)c2c1`: the half-maximal inhibitory concentration (IC50) turned out to be 1100 nM.

Molecule `O=C(/C=C/c1ccc(Cl)c(Cl)c1)NCC[C@@H]1C[C@H]1CCN1CCC(c2c[nH]c3ccccc23)CC1` had an IC50 of 790 nM.

Molecule `Brc1ccc(Nc2nc(NCC3CCCO3)c3ccccc3n2)cc1` (stereo not given) displayed an IC50 of 580 nM.

`N=C(N)c1cc(Cl)cc(NC(=O)Nc2cc(Cl)cc(C(=N)N)c2)c1` registered an IC50 of 720 nM.

For `CS(=O)(=O)c1ccc(CCNCc2ccc(-c3cccc(-c4nc5ccccc5[nH]4)c3)cc2)cc1`, the IC50 was 190 nM.

As to `Cc1ccc(NC(=O)N2CCN(CCCCCNC(=O)/C=C/c3ccc(Cl)c(Cl)c3)CC2)cc1C`, the IC50 stood at 1100 nM.

The molecule `O=C(NC1CCC(CN2CCC(c3c[nH]c4ccccc34)CC2)CC1)NC12CC3CC(CC(C3)C1)C2` (stereo not given) returned a half-inhibitory concentration (IC50) of 1060 nM. This IC50 and that of the molecule before are within 1.5-fold of each other.

In turn, `O=C(N[C@@H](Cc1cc(F)cc(F)c1)[C@H](O)CNCc1cccc(C(F)(F)F)c1)c1cc(C2CCCC2)cc(N2CCCC2=O)c1` yielded an IC50 of 800 nM. The IC50 values of the last two molecules are within 1.5-fold of each other.

Take `COc1ccccc1-n1c(SCC(=O)Nc2ccccc2F)nc2cccnc21`: the IC50 was found to be 420 nM. Compared with the last molecule, the IC50 is about 1.9-fold lower.

In turn, `O=c1cc(NCCCNCc2ccc(Cl)c(Cl)c2)[nH]c2cc(F)cc(F)c12` displayed an IC50 of 680 nM.

The molecule `O=c1[nH]c(NCCCNCc2cc3c(Cl)cc(Cl)cc3[nH]2)nc2ccccc12` displayed an IC50 of 990 nM.

As to `CC1CCN(c2nc(C(=O)Nc3ccc(F)cc3C(F)(F)F)c(C(C)C)s2)CC1`, the half-maximal inhibitory concentration (IC50) came to 230 nM.

Take `Cc1ccc(C2CCN(CCCCNC(=O)c3ccc(NC(=O)c4ccc(Cl)cc4)cc3)CC2)c(OCC(F)(F)F)c1`: the IC50 came to 280 nM.

`CCc1nc(N)nc(N)c1CCCOc1ccccc1Cl` returned an IC50 of 100 nM. This IC50 lies about 2.8-fold lower than the previous one.

As for `CN1CCC(NCc2cccc(-c3nn(C)c4nc(NC5CCCC5)ncc34)c2)CC1`, the IC50 came out at 1020 nM.

On to `Cc1[nH]c(C)c(-c2ccc(Br)cc2)c(=O)c1Br`, for which the IC50 came to 640 nM.

For the molecule `Oc1ccc(CCNc2nc(NCc3ccccc3-c3ccc(C(F)(F)F)cc3)nc(N3CCNCC3)n2)cc1`, the 50% inhibitory concentration (IC50) came out at 870 nM.

In turn, `c1cc(CN2CCc3ccccc3CC2)cc(-c2c[nH]c3nc(NC4CCCC4)ncc23)c1` gave an IC50 of 800 nM. This IC50 and that of the molecule before are within 1.5-fold of each other.

For `Brc1cc(CNCCCNc2nc3ccccc3[nH]2)sc1Br`, the half-inhibitory concentration (IC50) worked out at 220 nM.

For the molecule `O=C(NC1CCN(CCN2CCC(c3c[nH]c4ccccc34)CC2)CC1)c1ccc(-c2ccc(C(F)(F)F)cc2)cc1`, the IC50 turned out to be 200 nM.

`CC(C)C[C@H]1c2[nH]c3ccc(Cl)cc3c2CCN1C(=O)CCc1ccccc1`: the IC50 was 880 nM.

Molecule `CCO[C@H]1CN[C@H](C#Cc2cc3c(Nc4ccc(OCc5cccc(F)c5)c(Cl)c4)ncnc3s2)C1` had an IC50 of 940 nM. The IC50 values of the last two molecules are within 1.5-fold of each other.

For the molecule `CN(C)c1ccc(-c2ccc(C(=O)NC3CCN(Cc4ccccc4F)CC3)s2)cc1`, the IC50 is 1400 nM.

Molecule `O=C(NCC1CCN(CCN2CCc3ccc4c(c3C2)OCO4)CC1)c1ccc(-c2ccc(C(F)(F)F)cc2)cc1` displayed an IC50 of 860 nM.

As for `CCCOc1cc(Cc2cnc(N)nc2N)cc(OC)c1OC`, the IC50 was 1170 nM.

In turn, `O=[N+]([O-])c1cc2c(cc1C=NNc1nc(Nc3ccccc3)nc(Nc3ccccc3)n1)OCO2` returned an IC50 of 870 nM.

`CC(C)Cc1ccc(N2CCN(CCCCNC(=O)c3ccc(NC(=O)c4ccc(Cl)c(Cl)c4)cc3)CC2)cc1` displayed an IC50 of 1200 nM.

For `Cc1c(S(=O)(=O)Nc2ccc3ccn(CCN(C)C)c3c2)sc2ccc(Cl)cc12`, the IC50 was 920 nM.

`COc1cc(NC(=O)N2CCOC(CCN3CCC4(CCc5ccccc54)CC3)(c3ccc(Cl)c(Cl)c3)C2)cc(OC)c1` (stereo not given) registered an IC50 of 820 nM. The IC50 values of the last two molecules are within 1.5-fold of each other.

`CC(=O)N(C)C1CCN(Cc2cccc(-c3ccc(-c4nc5ccc(F)cc5[nH]4)cc3)c2)C1` (stereo not given): the IC50 is 960 nM.

`CC(C)(C)OC(=O)N[C@@H](CS(=O)(=O)CCN=C(N)COCc1ccccc1)C(=O)OC(C)(C)C`: the IC50 came out at 820 nM.

`Cc1nn(CC(C)C)c2sc(C(=O)Nc3nc(-c4ccccn4)cs3)cc12` displayed an IC50 of 960 nM.

In turn, `NC1=NC(=O)C(=Cc2cn(-c3ccccc3)nc2-c2cccc(S(=O)(=O)N3CCCC3)c2)S1` returned an IC50 of 1140 nM.

Regarding `Cn1c(Nc2cc(C(C)(C)C)on2)nc2cc(Nc3ccnc(Nc4cccc(CS(C)(=O)=O)c4)n3)ccc21`, the IC50 came out at 570 nM.

As to `CN1CCN(Cc2ccc(-c3cc4nccc(Nc5ccc(Oc6ccccc6)cc5)c4cc3Cl)o2)CC1`, the IC50 came to 980 nM. This IC50 lies about 1.7-fold higher than the previous one.

As for `CC(C)Sc1nc2c(c(=O)n1Cc1ccco1)C1(CCCC1)Cc1ccccc1-2`, the IC50 was 1630 nM.

As for `COc1ccc(NC(=O)c2cn(-c3ccc(C(C)(C)C)cc3)nc2C)cc1N1CCN(C)CC1`, the IC50 amounted to 950 nM. Compared with the last molecule, the IC50 is about 1.7-fold lower.

With `COc1ccc(C(=O)NC2CCN(c3ccnc4cc(Cl)ccc34)C2)cc1` (stereo not given), the IC50 was 230 nM.

Turning to `O=C(NCCCCCN1CCCN(C(=O)Nc2ccc(F)c(C(F)(F)F)c2)CC1)[C@@H]1C[C@H]1c1ccc(Cl)c(Cl)c1`, the IC50 was found to be 1030 nM.

`O=C(NC1CCN(CCN2CCC(c3cn(CCO)c4ccccc34)CC2)CC1)c1ccc(-c2ccc(C(F)(F)F)cc2)cc1` yielded an IC50 of 740 nM.

In turn, `CCOc1ccc(-c2nc(NC(=O)COc3ccc(OC)cc3)sc2C)cc1` returned an IC50 of 540 nM. The IC50 values of the last two molecules are within 1.5-fold of each other.

`COc1cccc(CN2CCCC(OC(c3ccc(F)cc3)c3ccc(F)cc3)C2)c1O` (stereo not given) returned an IC50 of 790 nM.

`COc1ccc(C(=O)CCC(=O)N(Cc2ccc(-c3ccc(CNCCc4ccc(S(C)(=O)=O)cc4)cn3)cc2)C(C)CN(C)C)cc1F` (stereo not given) gave a half-maximal inhibitory concentration (IC50) of 650 nM.

In turn, `CN1CCC(NCc2ccc(-c3ccc(S(=O)(=O)NCc4ccccc4)cc3)cc2)CC1` came in with an IC50 of 830 nM.

With `CSC1=NC(=Nc2ccccc2C)C2(CCC(C(C)(C)C)CC2)N1c1ccccc1Cl` (stereo not given), the IC50 came to 800 nM.

For the molecule `CN1CCCN(Cc2ccc(-c3cccc(NC(=O)c4ccc(C#N)cc4)c3)cc2)CC1`, the IC50 came to 740 nM.

With `CC(C)n1ncc2c(C(=O)N3CCCCCC3)cc(-c3ccccc3)nc21`, the IC50 was 790 nM.

Consider `CCOc1cc(C)ccc1C1CCN(CCCCNC(=O)c2ccc(-c3ccc(Cl)cn3)cc2)CC1`, for which the IC50 came out at 1610 nM. This IC50 is about 2-fold higher than that of the molecule before.

In the case of `N#Cc1c(N)nc(SCC(=O)Nc2cc(C(F)(F)F)ccc2Cl)c(C#N)c1-c1cccs1`, the IC50 was 740 nM.

As to `COc1ccc(F)cc1-c1csc(N(c2ccc(F)cc2)C2CCNCC2)n1`, the IC50 was 1210 nM.

With `O=C(NCC(=O)N1CCC[C@H]1C(=O)O)[C@@H](Cc1ccccc1)NC(=O)[C@@H]1CCCN1C(=O)CCCc1ccc(O)cc1` (HELM PEPTIDE1{[O=C(CCCc1ccc(O)cc1)[*:2]].P.[dF].G.P}$$$$V2.0), the IC50 turned out to be 1050 nM.

Molecule `COc1ccc(Nc2nc(C)cc(NC3CCCC3)n2)cc1` had an IC50 of 870 nM.

As to `CC1(C)N=C(N)N=C(N)N1OCc1cc2ccccc2cc1CON1C(N)=NC(N)=NC1(C)C`, the IC50 stood at 130 nM. Against the preceding molecule, the IC50 is about 6.7-fold lower.

`NC(=NCCCCC1CCCCC1)c1cccc(C(N)=NCCCCC2CCCCC2)n1` came in with an IC50 of 390 nM. Compared with the last molecule, the IC50 is about 3-fold higher.

Consider `CCOC(=O)C(NC(=O)c1ccc([N+](=O)[O-])o1)C(C)C` (stereo not given), for which the IC50 came to 1060 nM.

As for `O=C(NC1CCN(Cc2ccccc2)CC1)c1cc(-c2cccnc2)nc2ccc(Cl)cc12`, the half-inhibitory concentration (IC50) stood at 760 nM.

Take `O=C(NCCN1CCOCC1)c1csc(C2CCCN(C(=O)c3ccc(O)c(-c4cc(Cl)cc(Cl)c4)c3)C2)n1` (stereo not given): the concentration for half-maximal inhibition (IC50) came out at 1030 nM.

On to `CCOC(=O)c1ccc(NC(=O)NC2CCN(CCCCCNC(=O)/C=C/c3ccc(Cl)c(Cl)c3)C2)cc1` (stereo not given), for which the IC50 is 490 nM.

Consider `O=C(CN1CCN(C(=O)c2ccco2)CC1)Nc1ccccc1Br`, for which the half-maximal inhibitory concentration (IC50) was determined as 560 nM. The IC50 values of the last two molecules are within 1.5-fold of each other.

The molecule `CN1CCC(C(=O)N(Cc2ccc(-c3ccc(CNCCc4ccc(S(C)(=O)=O)cc4)cn3)cc2)C2Cc3ccccc3C2)CC1` yielded an IC50 of 660 nM.

The molecule `COc1ccc(-c2onc(C(F)(F)F)c2-c2ccc(Br)cc2)c(O)c1` returned an IC50 of 240 nM.

The molecule `Clc1cc(Nc2ccnc3ccc(Br)cc23)ccc1Oc1ccc2ccccc2c1Cl` gave an IC50 of 730 nM.

`Cc1cccc2[nH]c(-c3ccc(-c4ccc(CN5CCN(CCC#N)CC5)cc4)cc3)nc12` had an IC50 of 860 nM. This IC50 and that of the molecule before are within 1.5-fold of each other.

The molecule `NC(N)=NCCCN(Cc1ccccc1)c1ccccc1` displayed an IC50 of 580 nM.

The molecule `O=C(/C=C/c1ccc(Cl)c(Cl)c1)NCCCCCN1CCCN(C(=O)Nc2cc(Cl)cc(Cl)c2)CC1` came in with a 50% inhibitory concentration (IC50) of 790 nM.

`Oc1ccc(CCCNc2nc(NCc3ccccc3-c3ccccc3)nc(N3CCNCC3)n2)cc1` displayed an IC50 of 710 nM.

Consider `Cc1ccc(CN2CCN(CC(O)COc3ccc4c(c3)CCC4)CC2)cc1` (stereo not given), for which the IC50 is 860 nM.

In turn, `Cc1cc(N[C@@H](Cc2ccccc2)C(=O)NCc2cccs2)nc(Nc2ccccc2)n1` had an IC50 of 1240 nM.

The molecule `CCCCN(C(=O)c1ccccc1Cl)c1nnc(-c2ccccc2C)s1` came in with an IC50 of 1020 nM.

The molecule `Cc1noc(C)c1-c1ccc2c(Nc3ccccc3C(C)(C)C)c(C(=O)NCc3ccccc3)cnc2c1` returned an IC50 of 760 nM.

Turning to `CSc1nccc(-c2ccc3ccnc(N)c3c2)n1`, the IC50 is 920 nM.

`CCCCCCCCNCC(O)c1ccc(Cl)c(Cl)c1` (stereo not given) returned an IC50 of 820 nM.

With `CC(CN1CCN(CC(c2ccc(F)cc2)N2CCN(C)CC2)CC1)C(=O)c1ccc(O)cc1` (stereo not given), the IC50 was 670 nM. The IC50 values of the last two molecules are within 1.5-fold of each other.

For `Cc1cc(NN=Cc2ccccn2)c2cc(C(F)(F)F)ccc2n1`, the IC50 was 620 nM.

Turning to `Nc1nc(N)c2c(Cl)c(CNc3cccc(C(=O)O)c3)ccc2n1`, the IC50 is 10 nM.

`O=S(=O)(Nc1cc2c(cc1OCc1ccccc1)CCN(C1CCC1)CC2)c1ccc(-c2ccc(Cl)cc2)cc1`: the IC50 worked out at 1140 nM.
